From ChEMBL document CHEMBL1201862, “PubChem BioAssay data set” (2004)
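Briefly, cells in 96-well plates were exposed to five compound concentrations for 48 h, and endpoints were estimated by linear interpolation. GI50 is the concentration that inhibits growth by half.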 Calls of active or inactive are those of the source. No stated cut-off is given here; in the data, active = GI50 up to about 1.1 µM and inactive = higher.

Columns and labels:
Experiment in all cases: DTP human tumour cell line panel, 48 h
MCF7 = test system: MCF7
HOP-62 = test system: HOP-62
RPMI-8226 = test system: RPMI-8226
Malme-3M = test system: Malme-3M
SN12C = test system: SN12C
NCI-H460 = test system: NCI-H460
NCI-H226 = test system: NCI-H226
SNB-19 = test system: SNB-19
Hs-578T = test system: Hs-578T
LOX IMVI = test system: LOX IMVI
RXF 393 = test system: RXF 393
IGROV-1 = test system: IGROV-1
MDA-MB-435 = test system: MDA-MB-435
HL-60 = test system: HL-60
OVCAR-5 = test system: OVCAR-5
SK-MEL-5 = test system: SK-MEL-5
KM12 = test system: KM12
A549 = test system: A549
HOP-92 = test system: HOP-92
NCI/ADR-RES = test system: NCI/ADR-RES
UACC-257 = test system: UACC-257
786-0 = test system: 786-0
OVCAR-4 = test system: OVCAR-4
T47D = test system: T47D
U-251 = test system: U-251
SK-MEL-28 = test system: SK-MEL-28
TK-10 = test system: TK-10
SF-295 = test system: SF-295
SF-268 = test system: SF-268
DU-145 = test system: DU-145
SR = test system: SR
UO-31 = test system: UO-31
OVCAR-8 = test system: OVCAR-8
SW-620 = test system: SW-620
ACHN = test system: ACHN
NCI-H23 = test system: NCI-H23
SNB-75 = test system: SNB-75
BT-549 = test system: BT-549
SF-539 = test system: SF-539
A498 = test system: A498
SK-OV-3 = test system: SK-OV-3
M14 = test system: M14
HT-29 = test system: HT-29
HCC 2998 = test system: HCC 2998
SK-MEL-2 = test system: SK-MEL-2
COLO 205 = test system: COLO 205
HCT-116 = test system: HCT-116
EKVX = test system: EKVX
UACC-62 = test system: UACC-62
MDA-MB-231 = test system: MDA-MB-231
K562 = test system: K562
PC-3 = test system: PC-3
HCT-15 = test system: HCT-15
NCI-H522 = test system: NCI-H522
MOLT-4 = test system: MOLT-4
CCRF-CEM = test system: CCRF-CEM
OVCAR-3 = test system: OVCAR-3

## C(/Cc1ccc2c(c1)OCO2)=N\N=C1NCCN1
MCF7
  GI50: > 100 µM (inactive)
HOP-62
  GI50: 56.1 µM (inactive)
RPMI-8226
  GI50: 83.2 µM (inactive)
Malme-3M
  GI50: > 100 µM (inactive)
SN12C
  GI50: 84.7 µM (inactive)
NCI-H460
  GI50: 47.8 µM (inactive)
NCI-H226
  GI50: 33.2 µM (inactive)
SNB-19
  GI50: > 100 µM (inactive)
Hs-578T
  GI50: > 100 µM (inactive)
LOX IMVI
  GI50: 41.2 µM (inactive)
RXF 393
  GI50: > 100 µM (inactive)
IGROV-1
  GI50: > 100 µM (inactive)
MDA-MB-435
  GI50: > 100 µM (inactive)
HL-60
  GI50: 89.1 µM (inactive)
OVCAR-5
  GI50: 57.3 µM (inactive)
SK-MEL-5
  GI50: 47.3 µM (inactive)
KM12
  GI50: > 100 µM (inactive)
A549
  GI50: 73.8 µM (inactive)
HOP-92
  GI50: 34.8 µM (inactive)
NCI/ADR-RES
  GI50: > 100 µM (inactive)
UACC-257
  GI50: > 100 µM (inactive)
786-0
  GI50: > 100 µM (inactive)
OVCAR-4
  GI50: > 100 µM (inactive)
T47D
  GI50: 90.6 µM (inactive)
U-251
  GI50: > 100 µM (inactive)
SK-MEL-28
  GI50: > 100 µM (inactive)
TK-10
  GI50: 61.7 µM (inactive)
SF-295
  GI50: 42.4 µM (inactive)
SF-268
  GI50: > 100 µM (inactive)
DU-145
  GI50: > 100 µM (inactive)
SR
  GI50: 73.5 µM (inactive)
UO-31
  GI50: 42.1 µM (inactive)
OVCAR-8
  GI50: > 100 µM (inactive)
SW-620
  GI50: > 100 µM (inactive)
ACHN
  GI50: > 100 µM (inactive)
NCI-H23
  GI50: > 100 µM (inactive)
SNB-75
  GI50: 33.7 µM (inactive)
BT-549
  GI50: 91.2 µM (inactive)
SF-539
  GI50: 79.3 µM (inactive)
A498
  GI50: 18.8 µM (inactive)
SK-OV-3
  GI50: 48.6 µM (inactive)
M14
  GI50: > 100 µM (inactive)
HT-29
  GI50: 57.9 µM (inactive)
HCC 2998
  GI50: 92.3 µM (inactive)
SK-MEL-2
  GI50: > 100 µM (inactive)
COLO 205
  GI50: > 100 µM (inactive)
HCT-116
  GI50: 58.9 µM (inactive)
EKVX
  GI50: 61.2 µM (inactive)
UACC-62
  GI50: > 100 µM (inactive)
MDA-MB-231
  GI50: > 100 µM (inactive)
K562
  GI50: 43.2 µM (inactive)
PC-3
  GI50: 71.3 µM (inactive)
HCT-15
  GI50: > 100 µM
NCI-H522
  GI50: > 100 µM (inactive)
MOLT-4
  GI50: 52.6 µM (inactive)
CCRF-CEM
  GI50: > 100 µM (inactive)
OVCAR-3
  GI50: > 100 µM (inactive)
